The test system of data set [1] is subject suffering from alcohol use disorder. Briefly: Pharmaceutical composition administered to a subject suffering from alcohol use disorder. The data set is classed as in vivo. The method, then: [drawing 31] […] is administered to a subject suffering from alcohol use disorder. […] The subject is also found to have less cravings on the Visual Analogue Scale of Craving, which has 4 questions to assess domains of alcohol craving: the intention to drink, loss of control, relief craving, and urge intensity with a 0-20 point visual analogue scale for each item, with 0 indicating no craving and 20 indicating severe craving.
[drawing 32] is administered to a subject suffering from alcohol use disorder. […] The subject is also found to have less cravings on the Visual Analogue Scale of Craving, which has 4 questions to assess domains of alcohol craving: the intention to drink, loss of control, relief craving, and urge intensity with a 0-20 point visual analogue scale for each item, with 0 indicating no craving and 20 indicating severe craving.

Data set [2] in a line: Polymorphic screen: suspending 50 mg of compound in solvent, suspension outcome. The data set is classed as physicochemical. Particulars: left overnight. How it is done:
The polymorphic screening of the compound of Formula IV-I was performed by suspending 50 mg of the compound of Formula IV-I in each of the solvents as described in Table 12 at a volume of 1.5 mL for all but water (1 mL) in a separate vial. The vials were sealed and the suspensions were left overnight. In the following day, the vials with the compound of Formula IV-I dissolved were opened and the solutions were left to evaporate at room temperature. The solid materials were collected after the complete evaporation of the solvent. In the vials where the compound of Formula IV-I was not fully dissolved, the mixtures were left to slurrying for another 96 h. The slurries were filtered and the obtained solids were analyzed.

The values below come from patent US12171753B2, “Crystalline forms of ALDH2 modulators” (SOPHROSYNE PHARMACEUTICALS LIMITED, priority 2021, dated 2024).

Take `C[S+]([O-])C(=O)N1CCC(O)CC1` (centres unmarked) [drawing 31]: in data set [1] (4 questions, 0-20 point scale per item), the “Cravings on the Visual Analogue Scale of Craving” value is reported as “less cravings”. Also, the “Craving scale after 2 weeks of treatment” value in data set [1] (after 2 weeks of being treated) was “reduction in the craving scale”. In addition, in data set [1] (compared to a 90 day period prior to treatment), the “Alcohol consumed over a 90 day period” value was “consume less alcohol”. Also, the “Percentage of no heavy drinking days” value in data set [1] (during the period of treatment (e.g., 1 to 13 weeks)) is “increase in the percentage of no heavy drinking days”. Besides, the “Number of drinks consumed in the natural environment” value in data set [1] (first 13 days of medication period, timeline follow-back interview) was “reduction in the number of drinks”. Also, the “Alcohol drinking of the treated subject” value in data set [1] (subject with alcohol use disorder) is “drink less or no alcohol”.

Take `C[S+]([O-])C(=O)N1CCC(O)CC1` (centres unmarked) [Formula IV-I, 1-S-Methyl 1-S-oxo 4-hydroxy-1-piperidinecarbothioate]: the Suspension outcome is “Dissolved” in data set [2] (50 mg in 1 mL H2O); “Slurry” in data set [2] (50 mg in 1.5 mL 1-propanol); “Slurry” in data set [2] (50 mg in 1.5 mL 2-propanol); “Slurry” in data set [2] (50 mg in 1.5 mL Acetone); “Slurry” in data set [2] (50 mg in 1.5 mL Acetonitrile); “Dissolved” in data set [2] (50 mg in 1.5 mL Chloroform). For the same compound, the Suspension outcome in data set [2] (50 mg in 1.5 mL Cyclohexane) is “Slurry”; in data set [2] (50 mg in 1.5 mL Dichloromethane) it was “Dissolved”; in data set [2] (50 mg in 1.5 mL EtOAc), “Slurry”; in data set [2] (50 mg in 1.5 mL EtOH) it was “Dissolved”; in data set [2] (50 mg in 1.5 mL Ethyl ether) it was “Slurry”; in data set [2] (50 mg in 1.5 mL Isopropyl acetate) it was “Slurry”. Moreover, the Suspension outcome is recorded as “Dissolved” in data set [2] (50 mg in 1.5 mL MeOH); “Slurry” in data set [2] (50 mg in 1.5 mL Methyl acetate); “Dissolved” in data set [2] (50 mg in 1.5 mL Nitromethane); “Slurry” in data set [2] (50 mg in 1.5 mL Octane); “Slurry” in data set [2] (50 mg in 1.5 mL THF); “Slurry” in data set [2] (50 mg in 1.5 mL Toluene). The Suspension outcome in data set [2] (50 mg in 1.5 mL n-hexane) and in data set [2] (50 mg in 1.5 mL n-pentane) was “Slurry” in each case.
